From patent publication US8192962B2, “Processes for detecting toxic substances” (Daikin Industries, Ltd., priority 2001, dated 2012)

Test system: Transport facilitation protein genes
Test: DNA chip mRNA expression in yeast, transport facilitation protein genes (Table 5)
Format: cell-based, Saccharomyces cerevisiae S288C
In short: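 Chemical exposure: 2 h, log-phase S. cerevisiae S288C, YPD, 25° C., dose set to inhibit growth without death. Profiling: mRNA labeled by reverse transcription with Cy3- or Cy5-dUTP, hybridized to whole-genome array. Output: fluorescence ratio against untreated culture.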

[Cl][Pb][Cl] [(4), PbCl2]
The level of expressed mRNA in the presence of chemical substance/The level of expressed mRNA in the absence of chemical substance (yeast gene YBL030C): 0.9
The level of expressed mRNA in the presence of chemical substance/The level of expressed mRNA in the absence of chemical substance (yeast gene YBL099W): 1.4
The level of expressed mRNA in the presence of chemical substance/The level of expressed mRNA in the absence of chemical substance (yeast gene YBR052C): 2.6
The level of expressed mRNA in the presence of chemical substance/The level of expressed mRNA in the absence of chemical substance (yeast gene YBR068C): 2.5
The level of expressed mRNA in the presence of chemical substance/The level of expressed mRNA in the absence of chemical substance (yeast gene YBR127C): 1.1
The level of expressed mRNA in the presence of chemical substance/The level of expressed mRNA in the absence of chemical substance (yeast gene YBR132C): 1.8
The level of expressed mRNA in the presence of chemical substance/The level of expressed mRNA in the absence of chemical substance (yeast gene YBR207W): 2.0
The level of expressed mRNA in the presence of chemical substance/The level of expressed mRNA in the absence of chemical substance (yeast gene YBR293W): 1.8
The level of expressed mRNA in the presence of chemical substance/The level of expressed mRNA in the absence of chemical substance (yeast gene YBR294W): 2.6
The level of expressed mRNA in the presence of chemical substance/The level of expressed mRNA in the absence of chemical substance (yeast gene YBR295W): 1.1
The level of expressed mRNA in the presence of chemical substance/The level of expressed mRNA in the absence of chemical substance (yeast gene YBR298C): 2.3
The level of expressed mRNA in the presence of chemical substance/The level of expressed mRNA in the absence of chemical substance (yeast gene YCL025C): 1.7
The level of expressed mRNA in the presence of chemical substance/The level of expressed mRNA in the absence of chemical substance (yeast gene YCL038C): 1.6
The level of expressed mRNA in the presence of chemical substance/The level of expressed mRNA in the absence of chemical substance (yeast gene YCR037C): 0.8
The level of expressed mRNA in the presence of chemical substance/The level of expressed mRNA in the absence of chemical substance (yeast gene YCR098C): 2.0
The level of expressed mRNA in the presence of chemical substance/The level of expressed mRNA in the absence of chemical substance (yeast gene YDL128W): 1.0
The level of expressed mRNA in the presence of chemical substance/The level of expressed mRNA in the absence of chemical substance (yeast gene YDL198C): 1.4
The level of expressed mRNA in the presence of chemical substance/The level of expressed mRNA in the absence of chemical substance (yeast gene YDL210W): 1.1
The level of expressed mRNA in the presence of chemical substance/The level of expressed mRNA in the absence of chemical substance (yeast gene YDL245C): 2.2
The level of expressed mRNA in the presence of chemical substance/The level of expressed mRNA in the absence of chemical substance (yeast gene YDR038C): 0.9
The level of expressed mRNA in the presence of chemical substance/The level of expressed mRNA in the absence of chemical substance (yeast gene YDR039C): 0.9
The level of expressed mRNA in the presence of chemical substance/The level of expressed mRNA in the absence of chemical substance (yeast gene YDR086C): 1.4
The level of expressed mRNA in the presence of chemical substance/The level of expressed mRNA in the absence of chemical substance (yeast gene YDR270W): 1.3
The level of expressed mRNA in the presence of chemical substance/The level of expressed mRNA in the absence of chemical substance (yeast gene YDR298C): 1.3
The level of expressed mRNA in the presence of chemical substance/The level of expressed mRNA in the absence of chemical substance (yeast gene YDR342C): 5.7
The level of expressed mRNA in the presence of chemical substance/The level of expressed mRNA in the absence of chemical substance (yeast gene YDR343C): 4.6
The level of expressed mRNA in the presence of chemical substance/The level of expressed mRNA in the absence of chemical substance (yeast gene YDR345C): 2.6
The level of expressed mRNA in the presence of chemical substance/The level of expressed mRNA in the absence of chemical substance (yeast gene YDR387C): 2.2
The level of expressed mRNA in the presence of chemical substance/The level of expressed mRNA in the absence of chemical substance (yeast gene YDR497C): 1.3
The level of expressed mRNA in the presence of chemical substance/The level of expressed mRNA in the absence of chemical substance (yeast gene YEL027W): 1.1
The level of expressed mRNA in the presence of chemical substance/The level of expressed mRNA in the absence of chemical substance (yeast gene YEL063C): 1.3
The level of expressed mRNA in the presence of chemical substance/The level of expressed mRNA in the absence of chemical substance (yeast gene YEL065W): 0.4
The level of expressed mRNA in the presence of chemical substance/The level of expressed mRNA in the absence of chemical substance (yeast gene YER053C): 1.7
The level of expressed mRNA in the presence of chemical substance/The level of expressed mRNA in the absence of chemical substance (yeast gene YFL011W): 3.3
The level of expressed mRNA in the presence of chemical substance/The level of expressed mRNA in the absence of chemical substance (yeast gene YFL041W): 1.2
The level of expressed mRNA in the presence of chemical substance/The level of expressed mRNA in the absence of chemical substance (yeast gene YFL050C): 2.2
The level of expressed mRNA in the presence of chemical substance/The level of expressed mRNA in the absence of chemical substance (yeast gene YFL054C): 2.2
The level of expressed mRNA in the presence of chemical substance/The level of expressed mRNA in the absence of chemical substance (yeast gene YGL006W): 2.6
The level of expressed mRNA in the presence of chemical substance/The level of expressed mRNA in the absence of chemical substance (yeast gene YGL008C): 0.9
The level of expressed mRNA in the presence of chemical substance/The level of expressed mRNA in the absence of chemical substance (yeast gene YGL104C): 1.8
The level of expressed mRNA in the presence of chemical substance/The level of expressed mRNA in the absence of chemical substance (yeast gene YGL167C): 1.3
The level of expressed mRNA in the presence of chemical substance/The level of expressed mRNA in the absence of chemical substance (yeast gene YGL255W): 0.8
The level of expressed mRNA in the presence of chemical substance/The level of expressed mRNA in the absence of chemical substance (yeast gene YGR055W): 0.7
The level of expressed mRNA in the presence of chemical substance/The level of expressed mRNA in the absence of chemical substance (yeast gene YGR065C): 1.1
The level of expressed mRNA in the presence of chemical substance/The level of expressed mRNA in the absence of chemical substance (yeast gene YGR082W): 1.0
The level of expressed mRNA in the presence of chemical substance/The level of expressed mRNA in the absence of chemical substance (yeast gene YGR096W): 4.6
The level of expressed mRNA in the presence of chemical substance/The level of expressed mRNA in the absence of chemical substance (yeast gene YGR138C): 1.2
The level of expressed mRNA in the presence of chemical substance/The level of expressed mRNA in the absence of chemical substance (yeast gene YGR191W): 1.5
The level of expressed mRNA in the presence of chemical substance/The level of expressed mRNA in the absence of chemical substance (yeast gene YGR197C): 1.0
The level of expressed mRNA in the presence of chemical substance/The level of expressed mRNA in the absence of chemical substance (yeast gene YGR224W): 1.2
